Reference: patent US20120270237A9, “METHODS FOR THE IDENTIFICATION OF KINASE INTERACTING MOLECULES AND FOR THE PURIFICATION OF KINASE PROTEINS” (Cellzone AG, priority 2009, published 2012)

Experiments:
Experiment in all cases: Kinobeads competition binding, HL60 cell lysate
Parameters in all cases: endogenous in cells; host or cells: HL60
Conditions in all cases: 10 μM free compound
IRAK4 = biological target: T1, IRAK4 (Homo sapiens, UniProt Q9NWZ3)
T1 sequence (Q9NWZ3 1-460): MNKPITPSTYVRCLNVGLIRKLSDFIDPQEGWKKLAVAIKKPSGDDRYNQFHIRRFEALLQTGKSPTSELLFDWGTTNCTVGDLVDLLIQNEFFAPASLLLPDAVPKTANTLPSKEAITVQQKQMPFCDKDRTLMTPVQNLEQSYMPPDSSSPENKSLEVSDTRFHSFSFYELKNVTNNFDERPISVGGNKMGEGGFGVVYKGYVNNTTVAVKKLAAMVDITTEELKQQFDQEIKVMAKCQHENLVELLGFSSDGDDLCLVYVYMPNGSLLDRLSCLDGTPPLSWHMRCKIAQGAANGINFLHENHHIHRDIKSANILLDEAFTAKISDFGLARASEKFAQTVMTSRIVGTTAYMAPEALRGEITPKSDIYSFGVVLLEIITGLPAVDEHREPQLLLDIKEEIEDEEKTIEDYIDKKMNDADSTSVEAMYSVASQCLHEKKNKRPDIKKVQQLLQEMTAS
Procedure: (§1) To one aliquot of cell lysate 10 μM of the free compound (FIG. 3, CZC31326) was added and allowed to bind to proteins in the lysate. Then the affinity matrix with the immobilized compound (Example 1) was added to capture proteins that were not interacting with the previously added free compound. Beads were separated from the lysate and bead bound proteins were eluted in SDS sample buffer and subsequently separated by SDS-Polyacrylamide gel electrophoresis (FIG. 4). Suitable gel bands were cut out and subjected to in-gel proteolytic digestion with trypsin. The second lysate aliquot was processed identically, however no free compound was added (DMSO solvent control). Peptides originating from samples 1 and 2 were labeled with iTRAQ reagents (iTRAQ 114 and iTRAQ 117) and the combined samples were analyzed with a nano-flow liquid chromatography system coupled online to a tandem mass spectrometer (LC-MS/MS) experiment followed by iTRAQ reporter ion quantification in the MS/MS spectra (Ross et al., 2004. Mol. Cell. Proteomics 3(12):1154-1169). Further experimental protocols can be found in WO2006/134056 and a previous publication (Bantscheff et al., 2007. Nature Biotechnology 25, 1035-1044). Sepharose-beads with the immobilized compound (100 μl beads per pull-down experiment) were equilibrated in lysis buffer and incubated with a cell lysate sample containing 50 mg of protein on an end-over-end shaker (Roto Shake Genie, Scientific Industries Inc.) for 2 hours at 4° C. Beads were collected, transferred to Mobicol-columns (MoBiTech 10055) and washed with 10 ml lysis buffer containing 0.4% NP40 detergent, followed by 5 ml lysis buffer containing 0.2% detergent. To elute bound proteins, 60 μl 2×SDS sample buffer was added to the column. The column was incubated for 30 minutes at 50° C. and the eluate was transferred to a siliconized microfuge tube by centrifugation. Proteins were then alkylated with 108 mM iodoacetamid. Proteins were then separated by SDS-Polyacrylamide electrophoresis (SDS-PAGE). The peptide extracts of samples treated with 10 μM of free compound (CZC31326) and the solvent control (0.5% DMSO) were treated with different variants of the isobaric tagging reagent (iTRAQ Reagents Multiplex Kit, part number 4352135, Applied Biosystems, Foster City, Calif., USA). The iTRAQ reagents are a set of multiplexed, amine-specific, stable isotope reagents that can label peptides on amino groups in up to four different biological samples enabling simultaneous identification and quantitation of peptides. The iTRAQ reagents were used according to instructions provided by the manufacturer. The samples were resuspended in 10 μl 50 mM TEAB solution, pH 8.5 and 10 μl ethanol were added. The iTRAQ reagent was dissolved in 120 μl ethanol and 10 μl of reagent solution were added to the sample. The labeling reaction was performed at room temperature for one hour on a horizontal shaker and stopped by adding 5 μl of 100 mM TEAB and 100 mM glycine in water. The two labeled sampled were then combined, dried in a vacuum centrifuge and resuspended in 10 μl of 0.1% formic acid in water. Relative protein quantitation was performed using peak areas of iTRAQ reporter ion signals essentially as described in an earlier publication (Bantscheff et al., 2007. Nature Biotechnology 25, 1035-1044).

IRAK3 = IRAK3 (Homo sapiens, UniProt Q9Y616)
Sequence of IRAK3 (Q9Y616 whole entry): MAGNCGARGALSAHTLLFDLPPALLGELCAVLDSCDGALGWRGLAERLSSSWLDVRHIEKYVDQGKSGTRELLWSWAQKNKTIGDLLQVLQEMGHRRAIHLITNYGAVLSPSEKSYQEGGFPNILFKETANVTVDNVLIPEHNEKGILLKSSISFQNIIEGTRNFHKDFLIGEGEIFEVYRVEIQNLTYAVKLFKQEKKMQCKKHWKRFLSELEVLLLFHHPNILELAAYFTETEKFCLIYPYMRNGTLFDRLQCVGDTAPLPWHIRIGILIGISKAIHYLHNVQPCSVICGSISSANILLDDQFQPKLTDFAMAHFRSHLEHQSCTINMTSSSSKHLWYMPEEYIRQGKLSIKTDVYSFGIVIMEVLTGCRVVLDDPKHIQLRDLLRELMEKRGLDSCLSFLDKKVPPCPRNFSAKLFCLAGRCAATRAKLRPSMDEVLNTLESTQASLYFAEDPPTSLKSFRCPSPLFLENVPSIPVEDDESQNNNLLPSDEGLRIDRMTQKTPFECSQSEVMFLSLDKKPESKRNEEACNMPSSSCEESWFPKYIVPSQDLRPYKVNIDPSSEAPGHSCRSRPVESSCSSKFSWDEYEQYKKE
Procedure: as §1

PKD2 = biological target: T2, PKD2 (Homo sapiens, UniProt Q9BZL6)
T2 sequence (Q9BZL6 1-878): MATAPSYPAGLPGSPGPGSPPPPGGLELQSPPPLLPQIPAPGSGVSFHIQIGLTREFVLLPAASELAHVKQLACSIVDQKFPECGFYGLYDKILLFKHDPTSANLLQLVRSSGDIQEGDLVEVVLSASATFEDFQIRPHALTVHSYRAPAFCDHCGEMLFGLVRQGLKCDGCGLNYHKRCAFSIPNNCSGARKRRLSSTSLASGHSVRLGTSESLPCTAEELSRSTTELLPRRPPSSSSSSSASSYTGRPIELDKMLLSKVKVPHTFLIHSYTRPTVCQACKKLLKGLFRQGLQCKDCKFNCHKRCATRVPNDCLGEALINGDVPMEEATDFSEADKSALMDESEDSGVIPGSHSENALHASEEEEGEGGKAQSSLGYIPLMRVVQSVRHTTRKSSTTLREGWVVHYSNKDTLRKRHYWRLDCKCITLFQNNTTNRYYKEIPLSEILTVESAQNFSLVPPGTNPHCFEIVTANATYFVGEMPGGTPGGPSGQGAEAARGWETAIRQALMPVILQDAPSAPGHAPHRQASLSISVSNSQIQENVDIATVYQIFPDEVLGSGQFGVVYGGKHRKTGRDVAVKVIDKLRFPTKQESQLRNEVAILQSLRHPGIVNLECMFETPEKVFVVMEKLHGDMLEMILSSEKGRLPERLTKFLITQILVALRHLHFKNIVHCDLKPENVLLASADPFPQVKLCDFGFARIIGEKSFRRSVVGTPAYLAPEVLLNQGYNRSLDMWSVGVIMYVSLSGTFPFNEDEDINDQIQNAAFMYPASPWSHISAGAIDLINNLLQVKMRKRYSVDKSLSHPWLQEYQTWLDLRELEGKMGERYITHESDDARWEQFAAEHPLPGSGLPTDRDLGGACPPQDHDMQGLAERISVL
Procedure: as §1

MYT1 = MYT1 (Homo sapiens, UniProt Q99640)
Sequence of MYT1 (Q99640 whole entry): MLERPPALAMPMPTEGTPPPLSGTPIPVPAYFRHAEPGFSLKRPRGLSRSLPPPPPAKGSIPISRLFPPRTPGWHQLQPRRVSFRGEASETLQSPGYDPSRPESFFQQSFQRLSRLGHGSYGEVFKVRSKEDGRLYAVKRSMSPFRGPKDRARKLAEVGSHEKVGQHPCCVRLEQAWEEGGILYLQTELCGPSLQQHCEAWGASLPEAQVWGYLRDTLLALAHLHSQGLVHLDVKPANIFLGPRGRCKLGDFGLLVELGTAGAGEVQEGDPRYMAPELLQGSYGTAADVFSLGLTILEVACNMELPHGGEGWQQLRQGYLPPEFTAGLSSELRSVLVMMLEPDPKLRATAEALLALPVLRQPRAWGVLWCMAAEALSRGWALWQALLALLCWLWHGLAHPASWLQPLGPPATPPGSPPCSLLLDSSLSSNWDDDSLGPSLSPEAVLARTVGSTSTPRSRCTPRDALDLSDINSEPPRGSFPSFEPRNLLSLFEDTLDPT
Procedure: as §1

MPSK1 = MPSK1 (Homo sapiens, UniProt O75716)
Sequence of MPSK1 (O75716 whole entry): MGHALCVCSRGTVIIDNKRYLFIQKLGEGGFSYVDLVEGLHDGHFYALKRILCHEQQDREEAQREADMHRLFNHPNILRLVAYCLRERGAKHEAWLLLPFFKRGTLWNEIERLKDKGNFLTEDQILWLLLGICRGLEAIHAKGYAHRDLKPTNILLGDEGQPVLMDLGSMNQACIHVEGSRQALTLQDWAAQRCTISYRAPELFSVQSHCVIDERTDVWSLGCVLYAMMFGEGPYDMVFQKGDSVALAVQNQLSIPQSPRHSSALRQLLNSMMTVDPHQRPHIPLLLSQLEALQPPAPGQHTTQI
Procedure: as §1

Question: Which results are given for `CS(=O)(=O)Nc1ccccc1Nc1nc(Nc2cccc(OCCN)c2)ncc1Cl` [CZC31326, N-(2-(2-(3-(2-aminoethoxy)phenylamino)-5-chloropyrimidin-4-ylamino)phenyl)methanesulfonamide]?
Answer: Competition % (IRAK4): 97.5%; inhibition at 10 µM (IRAK3): 97.2%; inhibition at 10 µM (PKD2): 97.9%; Competition % (MYT1): 90.5%; inhibition at 10 µM (MPSK1): 93.4%
